Results taken from paper PMC9474773, “PARP targeted Auger emitter therapy with [^125I]PARPi-01 for triple-negative breast cancer” (EJNMMI Research, 2022).

Experiment: Time activity analysis of organ activity (biodistribution, therapy study and SPECT/CT data pooled)
Assay type: in vivo, NOD/SCID mice
Procedure: For biodistribution, animals imaged at 4 h p.i. were killed 24 h p.i., while the ones scanned 24 h p.i. were killed 5 days p.i.. Subsequently, organs were excised, weighed, and assayed for radioactivity in a gamma counter. Mean tumour and organ uptake was determined from decay-corrected tissue radioactivity normalized to injected dose and tissue sample weight (%ID/g tissue wet weight).
All statistical analyses were performed using the Graph-Pad Prism software (Version 9.1.1). Biodistribution data is expressed as mean ± standard deviation. Kaplan–Meier Survival curve was analysed using survival analysis (Log rank Mantel-Cox test). The data points of the normalized tumour volume as a function of the time of the groups (Control, ^125I-PARPi, Control—excluded ulcers, ^125I-PARPi—excluded ulcers) were subjected to nonlinear regression analysis using the exponential growth formula Y = Y0*exp(k*x) (Malthusian). Accordingly, the doubling time is equal to ln(2)/k. […] During regression analysis, the best-fit value k was compared between two datasets each using the extra sum-of-squares F test, testing the null hypothesis that k is the same for both datasets. Time activity analysis was performed using nonlinear exponential decay curve fitting and area under the curve was computed using the Graph-Pad Prism software. The area under the curve is expressed as total peak area ± standard error. For statistical analysis of fluorescent signals, unpaired t-test was used.
Auger emitter-based therapeutic effect was assessed upon application of [^125I]PARPi-01 in 4 doses (8.15 ± 2.96 MBq/dose) with 10 days between each dose in subcutaneous MDA-MB-231 models (Fig. 3A). The fractionated therapy was designed based on two recent publications. In the study by Riad et al., a good tumour response without severe toxicity in normal tissue after application of 30 MBq ^125I-labeled PARPi was shown. […] Furthermore we observed DNA damage upon low dose PARPi application in our in-vitro experiments in the MDA-MB-231 cell line. […] To avoid any handling bias in calliper measurements, only CT-image-based tumour growth was analysed. […] A significant delay in tumour growth was observed upon [^125I]PARPi-01 treatment showing doubling time of 14.2 d (95% CI: 12.6 d to 16.1 d) (Fig. 3B, Additional file 1: Fig. S3). Comparing the treatment group with the control (with and without exclusion of animals with ulcers) we could see a significant difference between the k values (P < 0.0001 and P = 0.0038, respectively) and thus also the doubling time. […] A significant portion of the mice in both the control group and the therapy group were sacrificed due to reaching humane endpoints not related to tumour size. 2 mice were sacrificed due to ascites and 10 mice were sacrificed due to ulcer formation on the tumour site. […] Considering only this selection of mice, median survival time was 35 and 38 for control and therapy mice, respectively. Since, as shown for ^177Lu labelled tracer, data (SUV, concentration) calculated based on SPECT images correlate with those obtained by gamma counting, liver, tumour, and muscle were excised for subsequent gamma counter measurements. To obtain the time activity curve and tracer retention time in each organ, the decay corrected activity (%ID/g) from the biodistribution study, therapy study and also organ activity calculated from SPECT/CT images at 4 h and 24 h p.i. were taken together and plotted over time for liver (Fig. 3D), tumour (Fig. 3E) and muscle (Fig. 3F). Tracer uptake in liver was at a peak of 3.84%ID/g at 4 h p.i. and dropped over time to 0.411%ID/g (8d p.i.). […] The peak uptake of muscle was only 0.186%ID/g at 4 h p.i. and decreased to 0.002%ID/g at 8 d p.i. The overall area under the curve (retention time) in tumour was 26.53 ± 2.35 h/g as opposed to a liver retention of 284 ± 45.02 h/g, whereas the retention time of muscle was only 5.918 ± 0.98 h/g.

[1] = total peak area ± standard error

SMILES: O=C(c1ccc([125I])cc1)N1CCN(C(=O)c2cc(Cc3n[nH]c(=O)c4ccccc34)ccc2F)CC1 [[^125I]PARPi-01]
- tracer accumulation in tumour (4 h p.i.): 0.7219 %ID/g
- tracer uptake in liver (4 h p.i. (peak)): 3.84 %ID/g
- uptake of muscle (4 h p.i. (peak)): 0.186 %ID/g
- tracer accumulation in tumour (24 h): 0.2 % ID/g
- tracer accumulation in tumour (8 days): 0.02%
- tracer uptake in liver (8 d p.i.): 0.411 %ID/g
- uptake of muscle (8 d p.i.): 0.002 %ID/g
- area under the curve (retention time) in liver [1]: 284 ± 45.02 h/g
- area under the curve (retention time) in muscle [1]: 5.918 ± 0.98 h/g
- area under the curve (retention time) in tumour [1]: 26.53 ± 2.35 h/g
